≈ marks a conversion by molar mass, not a printed value. Calls of active or inactive are those of the source. The calls are words filed in the database; no cut-off is given here.
Columns and labels:
[1] = biological target: [Pyruvate dehydrogenase (acetyl-transferring)] kinase isozyme 2, mitochondrial (Homo sapiens, UniProt Q15119); test: Inhibition of human recombinant PDHK2 assessed as residual PDH activity in presence of ATP using sodium pyruvate/Coenzyme A/thiamine pyrophosphate as substrates incubated for 90 mins by UV-transparent microplate analysis
[2] = Metabolic stability in human liver s9 fraction measured at 60 mins; type: ADME, subcellular; conditions: read-out: Stability
[3] = Apparent permeability of compound in human Caco-2 cells; type: ADME, cell-based
[4] = biological target: [Pyruvate dehydrogenase (acetyl-transferring)] kinase isozyme 4, mitochondrial (Homo sapiens, UniProt Q16654); test: Inhibition of PDHK4 (unknown origin)
Chain of [Pyruvate dehydrogenase (acetyl-transferring)] kinase isozyme 4, mitochondrial (Q16654 whole entry): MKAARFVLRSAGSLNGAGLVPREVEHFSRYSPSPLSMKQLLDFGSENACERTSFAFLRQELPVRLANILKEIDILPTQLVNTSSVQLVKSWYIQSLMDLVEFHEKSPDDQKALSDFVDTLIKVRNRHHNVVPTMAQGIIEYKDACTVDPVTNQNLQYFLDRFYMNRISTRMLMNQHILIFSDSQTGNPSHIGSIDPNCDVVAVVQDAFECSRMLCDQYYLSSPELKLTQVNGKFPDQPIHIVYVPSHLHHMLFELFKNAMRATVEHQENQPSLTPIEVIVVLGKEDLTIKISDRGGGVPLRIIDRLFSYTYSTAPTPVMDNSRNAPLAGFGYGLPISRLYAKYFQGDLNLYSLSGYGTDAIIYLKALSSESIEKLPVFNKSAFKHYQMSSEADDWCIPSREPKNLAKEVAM

[5] = Total body clearance in Sprague-Dawley rat at 1 mg/kg, iv measured for 25 hrs by LC-MS/MS analysis; type: ADME, organism-based; conditions: in vivo
[6] = Volume of distribution at steady state in Sprague-Dawley rat at 1 mg/kg, iv measured for 25 hrs by LC-MS/MS analysis; type: ADME, organism-based; conditions: in vivo, read-out: Vdss
[7] = MRT in Sprague-Dawley rat at 1 mg/kg, iv measured for 25 hrs by LC-MS/MS analysis; type: ADME, organism-based; conditions: in vivo
[8] = AUC in Sprague-Dawley rat at 1 mg/kg, iv measured for 25 hrs by LC-MS/MS analysis; type: ADME, organism-based; conditions: in vivo
[9] = Cmax in Sprague-Dawley rat at 10 mg/kg, po measured for 25 hrs by LC-MS/MS analysis; type: ADME, organism-based; conditions: in vivo
[10] = AUC in Sprague-Dawley rat at 10 mg/kg, po measured for 25 hrs by LC-MS/MS analysis; type: ADME, organism-based; conditions: in vivo
[11] = Oral bioavailability in Sprague-Dawley rat at 10 mg/kg measured for 25 hrs by LC-MS/MS analysis; type: ADME, organism-based; conditions: in vivo
Rattus norvegicus [12] = species: Rattus norvegicus; test: Antidiabetic activity against Sprague-Dawley rat assessed as PDH activity in liver measured at 6 hrs; type: functional, organism-based; conditions: dose 0.1-10 mg/kg, route po
Rattus norvegicus [13] = test: Antidiabetic activity against Zucker fatty rats assessed as decrease in glucose level in plasma at 10 mg/kg administered for 28 days; type: functional, organism-based; conditions: time 28.0 day
[14] = Drug concentration in Sprague-Dawley rat at 10 mg/kg, po measured at 8 hrs by LC-MS/MS analysis; type: ADME, organism-based; conditions: in vivo, read-out: Drug uptake
[15] = Drug concentration in Sprague-Dawley rat at 10 mg/kg, po measured at 25 hrs by LC-MS/MS analysis; type: ADME, organism-based; conditions: in vivo, read-out: Drug uptake
[16] = Aqueous solubility of compound in PBS at pH 7.2; type: physicochemical

Row | SMILES | IC50 [1] [nM] | remaining at 1 h [2] [%] | Papp [3] [×10⁻⁶ cm/s] | solubility [16] [µM] | other results
1 | Cn1cc(-c2cc(OCCCC(=O)O)cc3c2-c2ccccc2C3(O)C(F)(F)F)cn1 (stereo not drawn) | 20 | 91 | 28.4 | – | –
2 | Cc1cc(-c2cnn(CCO)c2)c2c(c1)C(O)(C(F)(F)F)c1ccccc1-2 (stereo not drawn) | 17 | 83 | 54.3 | – | IC50 [4]: > 1000 nM; clearance [5]: 11.7 mL/min/kg; Vd [6]: 2.6 L/kg; MRT [7]: 3.9 h; AUC at 25 h [8]: 4.1 µM·h; Cmax [9]: 4.4 µM; AUC at 25 h [10]: 57 µM·h; bioavailability [11]: 140%; Activity (Rattus norvegicus [12]): Dose-Dependent Effect; Activity (Rattus norvegicus [13]): Active; concentration at 8 h [14]: 3.1 µM; concentration at 25 h [15]: 0.2 µM
3 | OCCn1cc(-c2cc(F)cc3c2-c2ccccc2C3(O)C(F)(F)F)cn1 (stereo not drawn) | 20 | 97 | 59.8 | – | –
4 | OC1(C(F)(F)F)c2ccccc2-c2ccccc21 | 5900 | – | 56.8 | 87 (≈ 21.8 µg/mL) | –
5 | Nc1nc(SCC(=O)c2ccccc2)nc2sc3c(c12)CCN(Cc1ccccc1)C3 | 1900 | 6 | – | ≤ 0.3 | –
6 | COC(=O)c1ccc2c(c1)C(O)(C(F)(F)F)c1ccccc1-2 (racemic) | 600 | – | 34.5 | 45 (≈ 13.9 µg/mL) | –
7 | COC(=O)c1cccc2c1-c1ccccc1C2(O)C(F)(F)F (racemic) | 900 | – | 17.4 | 83 (≈ 25.6 µg/mL) | –
8 | O=C(c1ccc2c(c1)C(O)(C(F)(F)F)c1ccccc1-2)N1CCC1 (racemic) | 170 | 49 | 47.5 | 93 (≈ 31 µg/mL) | –
9 | OC1(C(F)(F)F)c2ccccc2-c2c(-c3cnco3)cccc21 (racemic) | – | 61 | 51.1 | 17 (≈ 5.39 µg/mL) | –
10 | OC1(C(F)(F)F)c2ccccc2-c2ccc(-c3ccccc3)cc21 (racemic) | – | – | 9.8 | ≤ 0.4 | –
11 | OC1(C(F)(F)F)c2ccccc2-c2c(-c3cccnc3)cccc21 (racemic) | – | 80 | 18 | 0.38 (≈ 0.124 µg/mL) | –
12 | O=C1CCCN1c1ccc2c(c1)C(O)(C(F)(F)F)c1ccccc1-2 (racemic) | – | 29 | 39.5 | 83 (≈ 27.7 µg/mL) | –
13 | O=C(O)CCCOc1ccc2c(c1)C(O)(C(F)(F)F)c1ccccc1-2 (racemic) | – | 92 | 61.5 | ≥ 95 | –
14 | Cn1cc(-c2cccc3c2-c2ccccc2C3(O)C(F)(F)F)cn1 (racemic) | – | 62 | 63.1 | 6.9 (≈ 2.28 µg/mL) | –
15 | OCCCCOc1ccc2c(c1)C(O)(C(F)(F)F)c1ccccc1-2 (racemic) | – | – | 48.3 | 85 (≈ 28.8 µg/mL) | –
16 | OC1(C(F)(F)F)c2ccccc2-c2c(-c3cncnc3)cccc21 (racemic) | – | 96 | 56.2 | 4.6 (≈ 1.51 µg/mL) | –
17 | OCCn1cc(-c2cccc3c2-c2ccccc2C3(O)C(F)(F)F)cn1 (racemic) | – | 94 | 68 | 92 (≈ 33.2 µg/mL) | –
18 | O=C(c1cc(-c2cnn(CCO)c2)c2c(c1)C(O)(C(F)(F)F)c1ccccc1-2)N1CCC1 (racemic) | – | 94 | 6.5 | – | –
19 | CNC(=O)Cn1cc(-c2cccc3c2-c2ccccc2C3(O)C(F)(F)F)cn1 (racemic) | – | 93 | 51.2 | 94 (≈ 36.4 µg/mL) | –
20 | CC(C)(C)Cn1cc(-c2cccc3c2-c2ccccc2C3(O)C(F)(F)F)cn1 (racemic) | – | 84 | 16.2 | ≤ 0.4 | –
21 | CC(C)C1(O)c2ccccc2-c2ncccc21 (racemic) | 12000 | 97 | – | 94 (≈ 21.2 µg/mL) | –

— ChEMBL document CHEMBL5576073, “Design and synthesis of novel fluorene derivatives as inhibitors of pyruvate dehydrogenase kinase” (Bioorg Med Chem Lett, 2024)
